The subject of this experiment is Mycobacterium smegmatis recombinant strains. Kind of experiment: microbe, parasite or virus in culture. Format: cell-based. The settings on record: Mycolicibacterium smegmatis, read-out: RFP MIC.

In brackets after ≈: the same amount, converted by molar mass.

`CO[C@H]1/C=C/O[C@@]2(C)Oc3c(C)c(O)c4c(O)c(c(/C=N/N5CCN(C)CC5)c(O)c4c3C2=O)NC(=O)/C(C)=C\C=C\[C@H](C)[C@H](O)[C@@H](C)[C@@H](O)[C@@H](C)[C@H](OC(C)=O)[C@@H]1C` [RFP, 3-(4-Methylpiperazinyliminomethyl)-rifamycin]: the MIC turned out to be 150 µg/mL (≈ 182 µM).

Values taken from patent US20080187922A1 (priority 2006, published 2008).
